# What was measured:
# β3Gal-T1 = biological target: T1, β3Gal-T1 (Homo sapiens, UniProt Q9Y5Z6); test: Activity of full coding construct of β3Gal-T1 expressed in Sf9 cells (Triton CF54 homogenates or media); format: biochemical; details: 60 hrs post-infection, acceptor 20 mM
# T1 construct: Full length enzymes were assayed with 1% Triton CF54 homogenates of washed cells; made in house; host or cells: Sf9 cells, baculovirus
# T1 sequence (Q9Y5Z6 1-326): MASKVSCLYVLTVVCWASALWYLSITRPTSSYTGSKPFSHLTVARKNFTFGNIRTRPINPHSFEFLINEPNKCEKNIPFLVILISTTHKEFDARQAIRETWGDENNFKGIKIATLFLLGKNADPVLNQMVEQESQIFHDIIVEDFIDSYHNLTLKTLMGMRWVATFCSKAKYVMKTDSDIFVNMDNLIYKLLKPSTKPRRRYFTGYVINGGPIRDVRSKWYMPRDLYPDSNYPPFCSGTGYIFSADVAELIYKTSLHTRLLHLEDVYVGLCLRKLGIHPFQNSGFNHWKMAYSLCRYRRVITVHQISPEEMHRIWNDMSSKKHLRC
# β3Gal-T5 = biological target: T2, β3Gal-T5 (Homo sapiens, UniProt Q9Y2C3, M85T); test: Activity of full coding construct of β3Gal-T5 expressed in Sf9 cells (Triton CF54 homogenates or media); format: biochemical; details: 60 hrs post-infection, acceptor 20 mM
# T2 construct: Full length enzymes were assayed with 1% Triton CF54 homogenates of washed cells; made in house; host or cells: Sf9 cells, baculovirus (pVL1193)
# T2 sequence (Q9Y2C3 1-310 M85T): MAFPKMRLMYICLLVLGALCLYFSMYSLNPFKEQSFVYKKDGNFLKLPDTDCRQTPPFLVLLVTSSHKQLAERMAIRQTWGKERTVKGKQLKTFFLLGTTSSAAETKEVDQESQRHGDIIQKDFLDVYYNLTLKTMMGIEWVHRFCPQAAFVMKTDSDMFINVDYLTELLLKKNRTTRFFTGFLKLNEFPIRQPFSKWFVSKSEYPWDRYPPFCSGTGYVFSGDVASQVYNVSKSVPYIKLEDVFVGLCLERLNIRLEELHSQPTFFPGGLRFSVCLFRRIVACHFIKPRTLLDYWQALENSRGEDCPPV
# Excerpt: PCR product was cloned into the BamHI site of pAcGP67B (Pharmingen). […] This PCR product was cloned into the BamHI site of pVL1193 (Pharmingen). Both soluble and full length constructs were fully sequenced to confirm fidelity. Plasmids […]5-full were co-transfected with Baculo-GoldTM DNA (Pharmingen) as described previously (Bennett, […]. and Clausen, H. cDNA cloning and expression of a novel human UDP-N-acetyl-alpha-D-galactosamine. Polypeptide N-acetyl-galactosaminyl-transferase, GalNAc-T3. J. Biol. Chem. 271:17006-17012, 1996). Recombinant Baculo-virus were obtained after two successive amplifications in Sf9 cells grown in serum-containing medium, and titers of virus were estimated by titration in 24-well plates with monitoring of enzyme activities. […] J. Biol. […] J. Biol. […] Polypeptide N-acetyl-galactosaminyl-transferase, GalNAc-T3. J. Biol. Chem. 271:17006-17012, 1996). For large scale expression amplified virus was used to infect High FiveTM cells grown in serum-free media (Invitrogen) in upright roller bottles shaking at 140 rpm and 27° C. The kinetic properties were determined with partially purified, secreted forms of the enzymes. […] Reaction products were quantified by Dowex-1 chromatography. […] The transfer of Gal was evaluated after acid precipitation by filtration through Whatman GF/C glass fibre filters. […]
smiles,measurement,setting,value
CC(=O)N[C@H]1[C@H](OCc2ccccc2)O[C@H](CO)[C@@H](O)[C@@H]1O [β-D-GlcNAc-Bzl],"β3Gal-T1 full coding construct activity, Cells",β3Gal-T1; 1% Triton CF54 cell homogenate,7.2 nmol/min/mL
same,"β3Gal-T1 full coding construct activity, Media",β3Gal-T1; media,0.2 nmol/min/mL
same,"β3Gal-T5 full coding construct activity, Cells",β3Gal-T5; 1% Triton CF54 cell homogenate,1.5 nmol/min/mL
same,"β3Gal-T5 full coding construct activity, Media",β3Gal-T5; media,0.1 nmol/min/mL

# — patent publication US7332279B2 (Glycozym APS, priority 1999, dated 2008)
